Data published in PMC5791972 (PLoS ONE, 2018).
“Also recorded” adds a separate entry of the source. Where two headings read alike, the source gives them in different places.

Columns and labels:
[1] = tested on: C57BL/6 (CSD) mice; test: Chronic social defeat and fear learning and memory; type: in vivo, mouse; settings: 1 mg/kg oral
[2] = Standard elevated plus maze; settings: male, C57/BL6, mouse, in vivo, 3 mg/kg
[3] = tested on: C57/BL6 mice; test: Standard elevated plus maze; settings: 3 mg/kg oral, 60 min prior
[4] = target: T1, motilin (h) (Homo sapiens, UniProt O43193); type: binding
T1 construct: host or cells: CHO cells

[5] = target: T2, ACE (h) (Homo sapiens, UniProt P12821); test: enzyme assay; type: biochemical; settings: 1.0E-06 M
T2 construct: Cerep (contract assay)

[6] = target: T3, M1 (h) (Homo sapiens, UniProt P11229); test: biochemical; type: binding; settings: 1.0E-06 M
T3 construct: host or cells: CHO cells
T3 sequence (P11229 1-460): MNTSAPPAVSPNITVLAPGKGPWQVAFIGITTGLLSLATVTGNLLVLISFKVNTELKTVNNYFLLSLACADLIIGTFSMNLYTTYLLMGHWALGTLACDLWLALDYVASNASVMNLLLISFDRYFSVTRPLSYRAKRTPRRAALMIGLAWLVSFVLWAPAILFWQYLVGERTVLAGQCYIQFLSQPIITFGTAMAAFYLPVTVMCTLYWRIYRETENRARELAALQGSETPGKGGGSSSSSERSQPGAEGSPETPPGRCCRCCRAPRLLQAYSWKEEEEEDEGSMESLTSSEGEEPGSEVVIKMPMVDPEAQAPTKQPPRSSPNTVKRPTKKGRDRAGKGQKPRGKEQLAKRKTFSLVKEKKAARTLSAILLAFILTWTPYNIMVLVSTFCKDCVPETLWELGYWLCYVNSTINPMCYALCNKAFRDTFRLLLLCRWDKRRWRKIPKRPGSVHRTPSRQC

[7] = target: T4, caspase-3 (h) (Homo sapiens, UniProt P42574); test: biochemical; settings: 1.0E-06 M
T4 construct: Cerep (contract assay); host or cells: E. coli
T4 sequence (P42574 29-175 limits assumed): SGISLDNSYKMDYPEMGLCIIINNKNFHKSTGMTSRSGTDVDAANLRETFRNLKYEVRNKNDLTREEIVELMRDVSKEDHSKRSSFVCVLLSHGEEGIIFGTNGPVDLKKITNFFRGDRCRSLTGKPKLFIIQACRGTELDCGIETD
T4 sequence (P42574 176-277 limits assumed): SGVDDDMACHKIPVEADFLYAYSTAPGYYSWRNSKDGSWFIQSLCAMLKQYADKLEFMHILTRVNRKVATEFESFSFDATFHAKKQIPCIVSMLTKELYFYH

[8] = target: T5, H3 (h) (Homo sapiens, UniProt Q9Y5N1); type: binding
T5 construct: host or cells: CHO cells

[9] = target: GABAB(1b) (h) (Homo sapiens, UniProt Q9UBS5); test: biochemical
[10] = target: T6, M2 (h) (Homo sapiens, UniProt P08172); test: biochemical
T6 sequence (P08172 1-466): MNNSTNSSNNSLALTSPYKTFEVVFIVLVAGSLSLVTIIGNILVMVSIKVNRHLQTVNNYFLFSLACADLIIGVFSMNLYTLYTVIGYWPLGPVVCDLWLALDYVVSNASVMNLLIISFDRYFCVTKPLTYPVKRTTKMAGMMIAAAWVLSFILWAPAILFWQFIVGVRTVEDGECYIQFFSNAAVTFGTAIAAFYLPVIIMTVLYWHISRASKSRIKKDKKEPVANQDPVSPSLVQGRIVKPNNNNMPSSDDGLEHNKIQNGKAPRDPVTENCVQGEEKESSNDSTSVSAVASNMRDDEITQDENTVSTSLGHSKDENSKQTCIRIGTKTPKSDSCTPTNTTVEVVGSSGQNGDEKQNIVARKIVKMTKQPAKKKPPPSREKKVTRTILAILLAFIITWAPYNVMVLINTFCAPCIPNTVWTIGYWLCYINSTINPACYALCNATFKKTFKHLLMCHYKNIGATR

[11] = 1.0E-06 M, read-out: % Inhibition 2nd

Chain of GABAB(1b) (h) (Q9UBS5 1-844 isoform Q9UBS5-2): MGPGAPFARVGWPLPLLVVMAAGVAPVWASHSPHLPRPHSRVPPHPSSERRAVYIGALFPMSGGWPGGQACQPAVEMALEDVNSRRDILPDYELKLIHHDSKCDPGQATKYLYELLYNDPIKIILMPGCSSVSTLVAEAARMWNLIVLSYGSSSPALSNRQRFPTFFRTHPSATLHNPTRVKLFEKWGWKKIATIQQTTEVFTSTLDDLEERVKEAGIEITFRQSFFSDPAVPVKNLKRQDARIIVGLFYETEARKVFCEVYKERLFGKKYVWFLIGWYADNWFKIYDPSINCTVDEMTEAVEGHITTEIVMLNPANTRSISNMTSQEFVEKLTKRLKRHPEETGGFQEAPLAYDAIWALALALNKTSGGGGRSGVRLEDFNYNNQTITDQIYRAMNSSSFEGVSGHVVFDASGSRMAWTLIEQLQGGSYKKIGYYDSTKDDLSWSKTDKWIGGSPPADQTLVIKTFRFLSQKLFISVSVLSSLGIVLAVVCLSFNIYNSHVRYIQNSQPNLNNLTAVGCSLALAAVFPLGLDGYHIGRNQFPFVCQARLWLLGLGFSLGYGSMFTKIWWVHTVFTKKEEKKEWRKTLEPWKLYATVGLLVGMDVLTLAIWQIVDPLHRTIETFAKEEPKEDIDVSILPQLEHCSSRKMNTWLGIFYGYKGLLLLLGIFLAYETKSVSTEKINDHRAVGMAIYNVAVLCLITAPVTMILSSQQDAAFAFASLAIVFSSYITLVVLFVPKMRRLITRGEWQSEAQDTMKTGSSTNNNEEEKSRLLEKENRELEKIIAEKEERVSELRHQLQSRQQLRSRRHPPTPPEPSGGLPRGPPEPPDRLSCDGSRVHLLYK
Chain of GABAB(1b) (h) (O75899 42-941 partner): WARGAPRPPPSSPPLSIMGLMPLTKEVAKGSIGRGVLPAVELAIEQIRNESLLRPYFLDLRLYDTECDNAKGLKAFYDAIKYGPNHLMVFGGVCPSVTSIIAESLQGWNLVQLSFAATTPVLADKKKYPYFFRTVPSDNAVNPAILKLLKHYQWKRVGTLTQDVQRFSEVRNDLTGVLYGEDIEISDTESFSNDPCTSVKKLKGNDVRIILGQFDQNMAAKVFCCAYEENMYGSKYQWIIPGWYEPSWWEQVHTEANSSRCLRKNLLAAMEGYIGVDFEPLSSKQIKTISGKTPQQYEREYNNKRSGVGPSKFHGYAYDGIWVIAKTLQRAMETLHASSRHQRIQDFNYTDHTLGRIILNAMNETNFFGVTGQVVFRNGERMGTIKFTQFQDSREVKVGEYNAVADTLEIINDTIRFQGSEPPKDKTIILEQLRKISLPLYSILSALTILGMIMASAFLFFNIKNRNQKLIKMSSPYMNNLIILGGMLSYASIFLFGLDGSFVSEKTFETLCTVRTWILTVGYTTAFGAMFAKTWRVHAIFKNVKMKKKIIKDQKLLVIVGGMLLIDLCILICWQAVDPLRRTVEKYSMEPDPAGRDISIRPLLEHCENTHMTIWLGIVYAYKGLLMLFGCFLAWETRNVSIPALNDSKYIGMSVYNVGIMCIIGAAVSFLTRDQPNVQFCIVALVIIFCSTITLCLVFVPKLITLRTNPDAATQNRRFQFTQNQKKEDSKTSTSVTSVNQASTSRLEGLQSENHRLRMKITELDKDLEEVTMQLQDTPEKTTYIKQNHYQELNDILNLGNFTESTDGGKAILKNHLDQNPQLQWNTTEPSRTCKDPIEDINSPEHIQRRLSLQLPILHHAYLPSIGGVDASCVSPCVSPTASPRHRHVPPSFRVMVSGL
T1 sequence (O43193 whole entry): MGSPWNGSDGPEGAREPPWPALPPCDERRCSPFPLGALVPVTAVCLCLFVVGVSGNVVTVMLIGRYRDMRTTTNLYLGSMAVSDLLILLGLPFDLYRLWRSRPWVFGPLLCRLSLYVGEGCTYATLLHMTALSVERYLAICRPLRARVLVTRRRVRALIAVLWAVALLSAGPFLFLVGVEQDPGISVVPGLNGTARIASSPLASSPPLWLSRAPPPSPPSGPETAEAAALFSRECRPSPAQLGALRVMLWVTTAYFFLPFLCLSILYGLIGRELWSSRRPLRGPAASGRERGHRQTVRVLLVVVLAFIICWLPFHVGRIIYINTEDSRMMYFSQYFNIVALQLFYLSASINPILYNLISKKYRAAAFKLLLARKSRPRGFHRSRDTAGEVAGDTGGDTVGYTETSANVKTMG
T2 sequence (P12821 30-1306): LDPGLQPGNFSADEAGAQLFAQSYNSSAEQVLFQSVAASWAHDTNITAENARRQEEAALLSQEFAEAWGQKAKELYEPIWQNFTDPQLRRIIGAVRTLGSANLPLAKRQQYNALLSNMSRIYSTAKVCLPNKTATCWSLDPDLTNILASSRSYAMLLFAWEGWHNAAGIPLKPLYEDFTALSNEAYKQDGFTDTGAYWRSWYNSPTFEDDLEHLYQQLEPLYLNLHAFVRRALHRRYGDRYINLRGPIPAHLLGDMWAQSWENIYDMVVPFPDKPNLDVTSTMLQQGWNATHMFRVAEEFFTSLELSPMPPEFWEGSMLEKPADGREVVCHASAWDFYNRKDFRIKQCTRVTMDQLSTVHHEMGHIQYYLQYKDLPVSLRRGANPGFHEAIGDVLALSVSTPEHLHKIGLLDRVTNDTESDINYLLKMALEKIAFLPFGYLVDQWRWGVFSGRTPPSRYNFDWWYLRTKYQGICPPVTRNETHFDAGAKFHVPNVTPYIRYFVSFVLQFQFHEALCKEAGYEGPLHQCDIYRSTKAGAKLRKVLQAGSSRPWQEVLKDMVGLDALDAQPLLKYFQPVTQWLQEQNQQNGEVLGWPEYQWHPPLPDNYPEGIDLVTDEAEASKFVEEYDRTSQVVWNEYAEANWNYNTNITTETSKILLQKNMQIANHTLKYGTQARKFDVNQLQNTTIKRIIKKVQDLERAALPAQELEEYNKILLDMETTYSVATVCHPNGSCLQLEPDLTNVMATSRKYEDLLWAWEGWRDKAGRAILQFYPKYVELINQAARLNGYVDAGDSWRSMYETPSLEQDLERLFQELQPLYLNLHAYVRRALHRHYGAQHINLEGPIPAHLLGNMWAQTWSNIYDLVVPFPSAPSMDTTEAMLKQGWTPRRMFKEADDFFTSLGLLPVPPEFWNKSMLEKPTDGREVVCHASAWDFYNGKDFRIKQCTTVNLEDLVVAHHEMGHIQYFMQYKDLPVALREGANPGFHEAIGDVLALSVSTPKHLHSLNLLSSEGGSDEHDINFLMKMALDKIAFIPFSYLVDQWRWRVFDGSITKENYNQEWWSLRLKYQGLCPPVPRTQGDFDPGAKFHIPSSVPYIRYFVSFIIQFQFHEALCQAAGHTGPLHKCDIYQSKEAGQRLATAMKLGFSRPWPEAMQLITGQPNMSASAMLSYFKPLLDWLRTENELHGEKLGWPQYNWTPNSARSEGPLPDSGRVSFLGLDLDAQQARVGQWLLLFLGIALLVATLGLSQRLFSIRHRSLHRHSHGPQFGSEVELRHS
T5 sequence (Q9Y5N1 whole entry): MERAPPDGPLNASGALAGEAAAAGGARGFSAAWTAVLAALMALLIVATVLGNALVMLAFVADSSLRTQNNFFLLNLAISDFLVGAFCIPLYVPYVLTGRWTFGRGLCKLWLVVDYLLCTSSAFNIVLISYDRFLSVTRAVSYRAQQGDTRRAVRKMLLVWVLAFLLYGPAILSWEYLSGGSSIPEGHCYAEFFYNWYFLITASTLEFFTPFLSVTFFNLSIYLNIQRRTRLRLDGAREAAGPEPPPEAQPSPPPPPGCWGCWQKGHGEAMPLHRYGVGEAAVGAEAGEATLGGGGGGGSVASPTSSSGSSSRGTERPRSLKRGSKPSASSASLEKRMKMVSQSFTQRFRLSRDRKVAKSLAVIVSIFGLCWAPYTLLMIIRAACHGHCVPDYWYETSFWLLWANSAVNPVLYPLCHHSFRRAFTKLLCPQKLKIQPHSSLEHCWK

For `Cn1c(=O)n(CCCO)c(=O)c2c1nc(Oc1cccc(Cl)c1)n2Cc1ccc(Cl)cc1` [HC-070], the “CS fear memory in CSD mice” value [1] was “tended to reduce”, the “context fear memory in CSD mice” value [1] was “significantly reduced” and the “freezing in inter-trial intervals between CS presentations, CSD mice” value [1] was “ameliorated to the level of control mice; also recorded: reduced fear memory in CSD mice”. The concentration at 60 min [2] was 782 ± 250 nM and the “number of open arm entries compared to vehicle” value [3] was “increased open arm entries; also recorded: significantly increased”.
`Cn1c(=O)n(CCCO)c(=O)c2c1nc(Oc1cccc(OC(F)(F)F)c1)n2Cc1ccc(Cl)cc1` [HC-608] showed an inhibition at 1 µM ([4]; 1.0E-06 M, read-out: % Inhibition 1st) of -25.4%, an inhibition at 1 µM [4, 11] of -16.2% and an inhibition at 1 µM ([4]; read-out: % Inhibition Mean) of -20.8%. The inhibition at 1 µM ([5]; read-out: % Inhibition 1st) was 0%, the inhibition at 1 µM ([5]; read-out: % Inhibition 2nd) was 6% and the inhibition at 1 µM ([5]; read-out: % Inhibition Mean) was 3%. It also gave an inhibition at 1 µM ([6]; read-out: % Inhibition 1st) of -1.6%, an inhibition at 1 µM ([6]; read-out: % Inhibition 2nd) of 5.5% and an inhibition at 1 µM ([6]; read-out: % Inhibition Mean) of 2%. It also gave an inhibition at 1 µM ([7]; read-out: % Inhibition 1st) of 3.7%, an inhibition at 1 µM ([7]; read-out: % Inhibition 2nd) of 2.3% and an inhibition at 1 µM ([7]; read-out: % Inhibition Mean) of 3%. For the same molecule, the inhibition at 1 µM [8, 11] was -0.8%, the inhibition at 1 µM ([8]; 1.0E-06 M, read-out: % Inhibition Mean) was -13.4% and the inhibition at 1 µM ([8]; read-out: % Inhibition 1st) was -25.9%. For the same molecule, the inhibition at 1 µM ([9]; read-out: % Inhibition 1st) was -9%, the inhibition at 1 µM ([9]; read-out: % Inhibition 2nd) was -7.8% and the inhibition at 1 µM ([9]; read-out: % Inhibition Mean) was -8.4%. The inhibition at 1 µM ([10]; read-out: % Inhibition 1st) was -15.9%, the inhibition at 1 µM ([10]; read-out: % Inhibition 2nd) was -14.2% and the inhibition at 1 µM ([10]; read-out: % Inhibition Mean) was -15%.
